The results in this text go back to US12121521B2, “Uses of salt-inducible kinase (SIK) inhibitors for treating osteoporosis” (The General Hospital Corporation, priority 2016, dated 2024).

In one assay the test system is male mice. Briefly: YKL-05-099 once daily for 2 weeks: bone RNA, static and dynamic histomorphometry. In kind it is in vivo, mouse. Conditions: 6 mg/kg once daily i.p. The method, then: Whole cell extracts were generated, followed by immunoblotting. […] RNA was prepared, and gene expression analyzed by RT-qPCR. […] 2 hours later, animals were sacrificed, RNA was prepared from femurs, and gene expression analyzed by RT-qPCR. […] Animals were sacrificed 2 hours after the final dose, and RNA from femurs analyzed for the indicated genes. BGLAP encodes osteocalcin. * indicated p<0.01 versus vehicle, # indicates p<0.05 versus vehicle. (FIGS. 8E to 8K), static and dynamic histomorphometry were performed on the tibia from the same mice as in FIG. 8D. Each data point represents an individual mouse, p values for each difference are shown on the graph. (FIG. 8L) Representative photomicrograph showing increased osteoblasts on cancellous bone surfaces from YKL-05-099-treated mice.
To determine effects on bone mass and cellular composition/activity, static and dynamic histomorphometry were performed. […] Other than the observed reduction in osteoclast numbers, these findings are quite similar to the effects of once daily PTH treatment.
All animals were housed in the Center for Comparative Medicine at the Massachusetts General Hospital, and all experiments were approved by the hospital's Subcommittee on Research Animal Care. HDAC5-null mice (70) and HDAC4 f/f mice (71) were generously provided by Dr. Eric Olson (University of Texas Southwestern Medical Center, Dallas, TX) and were backcrossed to C57B/6 mice for at least 6 generations. DMP1-Cre mice (27) were generously provided by Dr. Jian (Jerry) Feng (Texas A&M University, Baylor College of Dentistry, Dallas, TX). “DKO” HDAC4/5 mice were of the following genotype: HDAC4f/f; HDAC5−/−; DMP1-Cre. SIK2 f/f mice were as described (40), and were bred to DMP1-Cre animals to generate SIK2^OcyKO mice. ES cells carrying the targeted SOST allele Sost^tm1(KOMP)Vleg, in which the SOST coding sequence has been replaced by LacZ and floxed Neo cassette, were obtained from the Knockout Mouse Project (KOMP) Repository. Clone VG10069-BE8 was injected into blastocysts, and the resulting SOST+/− mice were crossed to HDAC5 mutant animals to generate compound heterozygous mice. In all instances, skeletal phenotypes were evaluated in 8 week-old sex-matched littermates. For acute effects of PTH on bone gene expression, animals were treated with PTH (1-34, 300 μg/kg, subcutaneous administration) and then sacrificed 90 minutes later. For acute effects of YKL-05-093 on bone gene expression, animals were treated with the indicated doses of compound (dissolved in PBS+25 mM HCl) or solvent via intraperitoneal injections, and sacrificed 2 hours later. […] For in vivo sclerostin antibody treatment, mice were treated twice weekly with sclerostin antibody (50 mg/kg, subcutaneous administration, generously provided by Dr. Michael Ominsky, Amgen) for 6 weeks. Power calculations were performed based on pilot experiments in which standard deviations and magnitudes of effect sizes were estimated. For experiments in which mice were treated with either vehicle or PTH (or YKL-05-093), mice were assigned to alternating treatment groups in consecutive order.
Right tibia from 8-week-old mice were subjected to bone histomorphometric analysis. The mice were injected 20 mg/kg body weight of calcein and 40 mg/kg body weight of demeclocycline on 7 and 2 days before necropsy, respectively. The tibia was dissected and fixed in 70% ethanol for 3 days. Fixed bones were dehydrated in graded ethanol, then infiltrated and embedded in methylmethacrylate without demineralization. Undecalcified 4-μm-thick longitudinal sections were obtained using microtome (RM2255, Leica Biosystems., IL, USA). Sections were left unstained for dynamic parameters measurement, and consecutive sections were stained with tartrate-resistant acid phosphatase and counterstained with toluidine blue for measurement of cellular parameters. […]

The test system of another assay is C57B/6 mice. The assay can be described thus: Acute YKL-05-093 administration: bone gene expression and sclerostin immunohistochemistry. The assay is classed as in vivo, mouse. Conditions: 2 hours. The method, then:
FIGS. 7A to 7I: Effects of YKL-05-093 administration on bone gene expression in vivo. (FIGS. 7A and 7B) 8 week old C57B/6 mice (n=4/group) were treated with the indicated dose of YKL-05-093 via intraperitoneal injection. 2 hours later, bone RNA was isolated and transcript abundance was measured by RT-qPCR. # indicates p<0.05 versus vehicle, and * indicates p<0.01 versus vehicle by Student's unpaired 2 tailed t-test. (FIG. 7C) Left: sclerostin immunohistochemistry was performed 2 hours after intraperitoneal injection with either vehicle or YKL-05-093 (20 μmol/kg). Right: quantification of sclerostin-positive cortical osteocytes, n=4 mice per treatment group, * indicated p<0.01 versus vehicle. (FIGS. 7D to 7I) Genes regulated by PTH and YKL-05-093 in vitro are also regulated by YKL-05-093 in vivo. Mice were treated with YKL-05-093 (20 μmol/kg) and bone RNA collected 2 hours later as in FIG. 7A. * indicates p<0.05 versus vehicle. In FIGS. 7A, 7B, and 7D to 7I, “umol” denotes μmol. In FIGS. 7D to 7I, each of the right bars corresponds to YKL-05-093.
All animals were housed in the Center for Comparative Medicine at the Massachusetts General Hospital, and all experiments were approved by the hospital's Subcommittee on Research Animal Care. HDAC5-null mice (70) and HDAC4 f/f mice (71) were generously provided by Dr. Eric Olson (University of Texas Southwestern Medical Center, Dallas, TX) and were backcrossed to C57B/6 mice for at least 6 generations. DMP1-Cre mice (27) were generously provided by Dr. Jian (Jerry) Feng (Texas A&M University, Baylor College of Dentistry, Dallas, TX). “DKO” HDAC4/5 mice were of the following genotype: HDAC4f/f; HDAC5−/−; DMP1-Cre. SIK2 f/f mice were as described (40), and were bred to DMP1-Cre animals to generate SIK2^OcyKO mice. ES cells carrying the targeted SOST allele Sost^tm1(KOMP)Vleg, in which the SOST coding sequence has been replaced by LacZ and floxed Neo cassette, were obtained from the Knockout Mouse Project (KOMP) Repository. Clone VG10069-BE8 was injected into blastocysts, and the resulting SOST+/− mice were crossed to HDAC5 mutant animals to generate compound heterozygous mice. In all instances, skeletal phenotypes were evaluated in 8 week-old sex-matched littermates. For acute effects of PTH on bone gene expression, animals were treated with PTH (1-34, 300 μg/kg, subcutaneous administration) and then sacrificed 90 minutes later. For acute effects of YKL-05-093 on bone gene expression, animals were treated with the indicated doses of compound (dissolved in PBS+25 mM HCl) or solvent via intraperitoneal injections, and sacrificed 2 hours later. […]

Regarding `COc1ccc(N2C(=O)N(c3c(C)cccc3Cl)Cc3cnc(Nc4ccc(C5CCN(C)CC5)cc4OC)nc32)nc1` [YKL-05-099], in the assay on male mice, the “RANKL levels in bone RNA” value is “increased”, the “SOST in bone RNA” value is reported as “trend towards reduced SOST”, the bone formation rate entry was “increased bone formation rate” and the cancellous bone mass entry is on record as “increased cancellous bone mass”. Besides, in the assay on male mice, the matrix apposition rate entry is “trend towards increased matrix apposition rate”; the mineralizing surface result was “increased mineralizing surface”; the “osteoblast marker genes (osteocalcin and COL1A1)” value is reported as “significantly increased”; the osteoblast numbers result is recorded as “increased osteoblast numbers”. Moreover, in the assay on male mice, the osteoclast numbers result is “reduced osteoclast numbers” and the osteoid surface result is “increased”.
On to `COc1ccc(N2C(=O)N(c3c(C)cccc3C)Cc3cnc(Nc4ccc(C5CCN(C)CC5)c(OC)c4)nc32)c(OC)c1` [YKL-05-093], for which, in the assay on C57B/6 mice (20 μmol/kg), the “bone expression of genes co-regulated by PTH and YKL-05-093 in vitro” value was “significant regulation of VDR, WNT4, NR4A2, NUAK1, PDGFA, and CD200 expression”; the “sclerostin protein levels by immunohistochemistry” value is reported as “reductions in sclerostin protein levels”. In the assay on C57B/6 mice (intraperitoneal), the “RANKL in osteocyte-enriched bone RNA” value is given as “RANKL up-regulation” and the “SOST in osteocyte-enriched bone RNA” value is recorded as “dose-dependent SOST suppression”.
